Earlier results, collected in publication PMC7770833, “Design, Synthesis, and Biological Evaluation of a Series of Oxazolone Carboxamides as a Novel Class of Acid Ceramidase Inhibitors” (Journal of Medicinal Chemistry, 2020).
pIC50: −log10 of the molar value. Read-outs that look alike come from different tables or passages of the source.

Tests used:
[1] = system: AC; settings: HL-60 cell lysates; cited from earlier work
[2] = target: human ceramidase (hCDase); settings: in SKOV3 cells; cited from earlier work
[3] = system: AC; settings: HaCaT cell lysates; cited from earlier work

SMILES: CCCCCCCCCCCCCC(=O)N[C@H](C)[C@@H](O)c1ccccc1 [D-e-MAPP, D-erithro-2-(N-myristoylamino)-1-phenyl-1-propanol]
- pIC50 [1]: < 3.30

SMILES: COc1ccc(/C=C/C(=O)c2c(-c3ccccc3)c3cc(C)ccc3[nH]c2=O)cc1 [Ceranib-1]
- pIC50 [2]: 4.26

SMILES: CCCCCCCCCCCCCC(=O)N[C@H](CO)[C@H](O)c1ccc([N+](=O)[O-])cc1 [Compound B13]
- pIC50 [3]: ~5.00
